# Laboratory results from US20250127918A1, “SITE-SELECTIVE CONJUGATION OF A PHARMACEUTICAL AGENT TO AN ANTIBODY USING AN AFFINITY PEPTIDE” (priority 2023, published 2025).
# Key:
# [1] = target: Fc fragment of IgG1; assay: Binding affinity of Z33 and variants to IgG Fc
# [2] = system: mouse IgG; assay: Azido transfer to mouse IgG in vivo (E1/E2 ELISA of serum); conditions: subcutaneous injection of 30 mg/kg, WT Swiss mice, serum at 24 h, listed as N3-2-I
# Procedure: To evaluate the in vivo azido transfer in mice, two groups of mice were injected subcutaneously or intraperitoneally with the IgG-binder peptides. Mice were sacrificed at 24 hours post-injection, and the blood was collected for ELISA analysis. Sandwich ELISA assays. […] The percentage azido transfer was also compared with intraperitoneal injection of 10 mg/kg Z33-E20Hcy, intraperitoneal injection of 30 mg/kg of Z33-E20Hcy, subcutaneous injection of 30 mg/kg Z33-E20Hcy, and intraperitoneal injection of 30 mg/kg pegylated-Z33-E20Hcy (FIG. 2D).
# Two sandwich ELISA assays have been developed in-house, one for the detection of the azido moiety conjugated mouse IgG (mIgG, E1), the other one for the detection of the whole mIgGs (modified and unmodified) in the sample (E2). Both E1 and E2 were run simultaneously on a same plate, using the same initial stock sample, and were processed in parallel at the same time for every steps. […] Absorbances were measured at 450 nm and 540 nm (A0=A450 nm-A540 nm) using a Spark microplate reader (Tecan, USA). The background noise (Ablank) from the serum was subtracted to get the final absorbance of the sample (Asample=A0-Ablank). The ratio Asample (E1)/Asample (E2) was calculated to estimate the percentage of azido transfer on the total amount of IgG in the sample. […]
# [3] = system: Denosumab (hIgG2); assay: Small bioconjugation handle installation to other IgGs (Q-ToF LC-MS); format: biochemical, human; conditions: 20 equivalents, room temperature, HEPES pH 8.5
# Procedure: (§1) First, the electrophile-attached Z33 peptide reagent was dissolved in water to prepare a 2 mg/mL solution.
# as §1
# [4] = system: mouse IgG; assay: Azido transfer to mouse IgG in mouse serum (E1/E2 sandwich ELISA); format: biochemical; conditions: after 2 h of incubation in mouse sera
# Source text: Two sandwich ELISA assays have been developed in-house, one for the detection of the azido moiety conjugated mouse IgG (mIgG, E1), the other one for the detection of the whole mIgGs (modified and unmodified) in the sample (E2). Both E1 and E2 were run simultaneously on a same plate, using the same initial stock sample, and were processed in parallel at the same time for every steps. The same azido-free capture goat anti-mouse polyclonal antibody (Creative Diagnostics) was used for both E1-E2 assays at 1 μg/mL (100 μL per well) for incubation overnight at 4° C. Washing steps were performed thoroughly between each incubation by using 0.02% Tween 20-PBS. […] Absorbances were measured at 450 nm and 540 nm (A0=A450 nm-A540 nm) using a Spark microplate reader (Tecan, USA). The background noise (Ablank) from the serum was subtracted to get the final absorbance of the sample (Asample=A0-Ablank). The ratio Asample (E1)/Asample (E2) was calculated to estimate the percentage of azido transfer on the total amount of IgG in the sample.
# Two sandwich ELISA assays have been developed in-house, one for the detection of the azido moiety conjugated mouse IgG (mIgG, E1), the other one for the detection of the whole mIgGs (modified and unmodified) in the sample (E2). […] Absorbances were measured at 450 nm and 540 nm (A0=A450nm−A540nm) using a Spark microplate reader (Tecan, USA). […]
# [5] = system: Mouse IgG1; assay: Small bioconjugation handle installation to other IgGs (Q-ToF LC-MS); format: biochemical; conditions: 20 equivalents, room temperature
# Sequence of Mouse IgG1 (P01868 98-324 limits assumed): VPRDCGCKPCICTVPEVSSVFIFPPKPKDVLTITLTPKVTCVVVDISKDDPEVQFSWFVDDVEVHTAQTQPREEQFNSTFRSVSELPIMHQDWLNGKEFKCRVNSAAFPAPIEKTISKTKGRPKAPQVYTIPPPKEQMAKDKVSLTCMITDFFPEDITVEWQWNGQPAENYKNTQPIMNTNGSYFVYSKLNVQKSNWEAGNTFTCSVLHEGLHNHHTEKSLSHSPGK
# Procedure: Reactions were performed on a 10 μL scale using 0.2 mL PCR tubes (FIG. 64). First, the electrophile-attached Z33 peptide reagent was dissolved in water to prepare a 2 mg/mL solution. IgG (human WN1 (prepared as previously described (ChemBioChem, 19, 2039-2044 (2018)), denosumab (Invitrogen), dupilumab (Invitrogen), or mouse IgG1 (Invitrogen, subtype controlled)), electrophile-attached Z33 peptide reagent (2 mg/mL), HEPES buffer (pH 8.5), and NaCl solution were added to achieve final concentrations of 5 μM, 100 μM, 100 mM, and 200 mM. The contents were mixed using a 5 μL pipette and incubated at room temperature in the dark for 24 hours. The resulting reaction solution was quenched with a 100 mM Tris buffer and analyzed by LC-MS (FIGS. 53A to 53D, Table 10). Sample preparation for LC-MS analysis was performed in the same manner as previously described.
# Reactions were performed on a 10 μL scale using 0.2 mL PCR tubes. First, the electrophile-attached Z33 peptide reagent was dissolved in water to prepare a 2 mg/mL solution. Denosumab (Invitrogen), dupilumab (Invitrogen), or mouse IgG1 (Invitrogen, subtype controlled)), electrophile-attached Z33 peptide reagent (2 mg/mL), HEPES buffer (pH 8.5), and NaCl solution were added to achieve final concentrations of 5 μM, 100 μM, 100 mM, and 200 mM. […] The resulting reaction solution was quenched with a 100 mM Tris buffer and analyzed by LC-MS. […]
sequence,measurement,setting,value
FNMQQQRRFYEALHD PNLNHcyEQRNAKIKSI RDD [PEL-21],Kd,[1],~60 nM
same,Azido transfer to mouse IgG in vivo (conversion rate),[2],33±12%
same,Light chain total conversion,[3],1%
same,IgG conversion rate in mouse sera,[4],33±1%
same,Light chain total conversion,"[5]; HEPES pH 8.5, first column so headed",2%
same,Light chain total conversion,"[5]; HEPES pH 8.5, second column so headed",69%
